Measured values taken from patent publication US20240050428A1 (Cullgen (Shanghai), Inc., priority 2020, published 2024).
Like-named read-outs stand apart in the source and are kept apart here.

Key:
MOLM-13 cells = test: Cell viability assay (CellTiter-Glo) in MOLM-13 cells, alone or with gilteritinib; assay type: cell-based; conditions: Homo sapiens, MOLM-13, 72 h, MOLM-13 cells, three days, CellTiter-Glo
MV4;11 cells = test: Cell viability assay (CellTiter-Glo) in MV4;11 cells, alone or with gilteritinib; assay type: cell-based; conditions: Homo sapiens, MV4-11, 72 h, MV4;11 cells, three days, CellTiter-Glo, read-out: MV4
[1] = compound alone (without gilteritinib), read-out: MOLM-13 IC50
[2] = with gilteritinib 20 nM, read-out: MOLM-13 IC50 gilteritinib
[3] = compound alone (without gilteritinib), 11 IC50
[4] = with gilteritinib 10 nM, 11 IC50 gilteritinib

Row | SMILES | IC50 (MOLM-13 cells; [1]) [nM] | IC50 (MOLM-13 cells; [2]) [nM] | IC50 (MV4;11 cells; [3]) [nM] | IC50 (MV4;11 cells; [4]) [nM]
1 | O=C1CCC(N2C(=O)c3ccc(NCCC[C@H]4C[C@@H](n5cc(-c6cnc7ccccc7n6)cn5)C4)cc3C2=O)C(=O)N1 (stereo partly drawn) [GS-177, 2-(2,6-Dioxopiperidin-3-yl)-5-((3-(cis-3-(4-(quinoxalin-2-yl)-1H-pyrazol-1-yl)cyclobutyl)propyl)amino)isoindoline-1,3-dione] | > 1000 | 10 to 100 | > 1000 | 100 to 1000
2 | O=C1CCC(N2C(=O)c3ccc(NC[C@H]4C[C@H](n5cc(-c6cnc7ccccc7n6)cn5)C4)cc3C2=O)C(=O)N1 (stereo partly drawn) [GS-178, 2-(2,6-Dioxopiperidin-3-yl)-5-(((trans-3-(4-(quinoxalin-2-yl)-1H-pyrazol-1-yl)cyclobutyl)methyl)amino)isoindoline-1,3-dione] | 100 to 1000 | 10 to 100 | 10 to 100 | 10 to 100
3 | O=C1CCC(N2C(=O)c3ccc(NC[C@H]4C[C@@H](n5cc(-c6cnc7ccccc7n6)cn5)C4)cc3C2=O)C(=O)N1 (stereo partly drawn) [GS-179, 2-(2,6-Dioxopiperidin-3-yl)-5-(((cis-3-(4-(quinoxalin-2-yl)-1H-pyrazol-1-yl)cyclobutyl)methyl)amino)isoindoline-1,3-dione] | > 1000 | 100 to 1000 | > 1000 | > 1000
4 | O=C1CCC(N2C(=O)c3ccc(NC[C@H]4C[C@H](n5cc(-c6cnc7ccc(C8CCOCC8)cc7n6)cn5)C4)cc3C2=O)C(=O)N1 (stereo partly drawn) [GS-180, 2-(2,6-Dioxopiperidin-3-yl)-5-(((trans-3-(4-(7-(tetrahydro-2H-pyran-4-yl)quinoxalin-2-yl)-1H-pyrazol-1-yl)cyclobutyl)methyl)amino)isoindoline-1,3-dione] | 100 to 1000 | 10 to 100 | 100 to 1000 | 10 to 100
5 | O=C1CCC(N2C(=O)c3ccc(NCCC[C@H]4C[C@H](n5cc(-c6cnc7ccc(C8CCOCC8)cc7n6)cn5)C4)cc3C2=O)C(=O)N1 (stereo partly drawn) [GS-181, 2-(2,6-Dioxopiperidin-3-yl)-5-((3-(trans-3-(4-(7-(tetrahydro-2H-pyran-4-yl)quinoxalin-2-yl)-1H-pyrazol-1-yl)cyclobutyl)propyl)amino)isoindoline-1,3-dione] | 10 to 100 | < 10 | 10 to 100 | < 10
6 | O=C1CCC(N2C(=O)c3ccc(NCCC[C@H]4C[C@@H](n5cc(-c6cnc7ccc(C8CCOCC8)cc7n6)cn5)C4)cc3C2=O)C(=O)N1 (stereo partly drawn) [GS-182, 2-(2,6-Dioxopiperidin-3-yl)-5-((3-(cis-3-(4-(7-(tetrahydro-2H-pyran-4-yl)quinoxalin-2-yl)-1H-pyrazol-1-yl)cyclobutyl)propyl)amino)isoindoline-1,3-dione] | 100 to 1000 | < 10 | 100 to 1000 | 10 to 100
7 | O=C1CCC(N2C(=O)c3ccc(NC4CCC(CCn5cc(-c6cnc7ccccc7n6)cn5)CC4)cc3C2=O)C(=O)N1 (stereo not drawn) [GS-183, 2-(2,6-Dioxopiperidin-3-yl)-5-((4-(2-(4-(quinoxalin-2-yl)-1H-pyrazol-1-yl)ethyl)cyclohexyl)amino)isoindoline-1,3-dione] | > 1000 | 100 to 1000 | 100 to 1000 | 100 to 1000
8 | O=C1CCC(N2C(=O)c3ccc(NC4CCC(CCCn5cc(-c6cnc7ccccc7n6)cn5)CC4)cc3C2=O)C(=O)N1 (stereo not drawn) [GS-184, 2-(2,6-Dioxopiperidin-3-yl)-5-((4-(3-(4-(quinoxalin-2-yl)-1H-pyrazol-1-yl)propyl)cyclohexyl)amino)isoindoline-1,3-dione] | > 1000 | 100 to 1000 | 100 to 1000 | > 1000
9 | CN1CCN(c2ccc3ncc(-c4cnn([C@H]5C[C@H](CNc6ccc7c(c6)C(=O)N(C6CCC(=O)NC6=O)C7=O)C5)c4)nc3c2)CC1 (stereo partly drawn) [GS-185, 2-(2,6-Dioxopiperidin-3-yl)-5-(((trans-3-(4-(7-(4-methylpiperazin-1-yl)quinoxalin-2-yl)-1H-pyrazol-1-yl)cyclobutyl)methyl)amino)isoindoline-1,3-dione] | 100 to 1000 | 10 to 100 | 100 to 1000 | 10 to 100
10 | O=C1CCC(N2C(=O)c3ccc(NC[C@H]4C[C@@H](n5cc(-c6cnc7ccc(N8CCNCC8)cc7n6)cn5)C4)cc3C2=O)C(=O)N1 (stereo partly drawn) [GS-186, 2-(2,6-Dioxopiperidin-3-yl)-5-(((cis-3-(4-(7-(piperazin-1-yl)quinoxalin-2-yl)-1H-pyrazol-1-yl)cyclobutyl)methyl)amino)isoindoline-1,3-dione] | > 1000 | 100 to 1000 | > 1000 | > 1000
11 | O=C1CCC(N2C(=O)c3ccc(NC[C@H]4C[C@H](n5cc(-c6cnc7ccc(N8CCNCC8)cc7n6)cn5)C4)cc3C2=O)C(=O)N1 (stereo partly drawn) [GS-187, 2-(2,6-Dioxopiperidin-3-yl)-5-(((trans-3-(4-(7-(piperazin-1-yl)quinoxalin-2-yl)-1H-pyrazol-1-yl)cyclobutyl)methyl)amino)isoindoline-1,3-dione] | > 1000 | > 1000 | > 1000 | > 1000
12 | O=C1CCC(N2C(=O)c3ccc(NCCC[C@H]4C[C@H](n5cc(-c6cnc7ccc(N8CCOCC8)cc7n6)cn5)C4)cc3C2=O)C(=O)N1 (stereo partly drawn) [GS-188, 2-(2,6-Dioxopiperidin-3-yl)-5-((3-(trans-3-(4-(7-morpholinoquinoxalin-2-yl)-1H-pyrazol-1-yl)cyclobutyl)propyl)amino)isoindoline-1,3-dione] | 10 to 100 | < 10 | 10 to 100 | < 10
13 | O=C1CCC(N2C(=O)c3ccc(NC[C@H]4C[C@@H](n5cc(-c6cnc7ccc(N8CCOCC8)cc7n6)cn5)C4)cc3C2=O)C(=O)N1 (stereo partly drawn) [GS-189, 2-(2,6-Dioxopiperidin-3-yl)-5-(((cis-3-(4-(7-morpholinoquinoxalin-2-yl)-1H-pyrazol-1-yl)cyclobutyl)methyl)amino)isoindoline-1,3-dione] | 100 to 1000 | 100 to 1000 | 100 to 1000 | > 1000
14 | CN1CCN(c2ccc3ncc(-c4cnn([C@H]5C[C@@H](CNc6ccc7c(c6)C(=O)N(C6CCC(=O)NC6=O)C7=O)C5)c4)nc3c2)CC1 (stereo partly drawn) [GS-190, 2-(2,6-Dioxopiperidin-3-yl)-5-(((cis-3-(4-(7-(4-methylpiperazin-1-yl)quinoxalin-2-yl)-1H-pyrazol-1-yl)cyclobutyl)methyl)amino)isoindoline-1,3-dione] | > 1000 | 100 to 1000 | > 1000 | > 1000
15 | O=C1CCC(N2C(=O)c3ccc(NC[C@H]4C[C@H](n5cc(-c6cnc7ccc(N8CCOCC8)cc7n6)cn5)C4)cc3C2=O)C(=O)N1 (stereo partly drawn) [GS-191, 2-(2,6-Dioxopiperidin-3-yl)-5-(((trans-3-(4-(7-morpholinoquinoxalin-2-yl)-1H-pyrazol-1-yl)cyclobutyl)methyl)amino)isoindoline-1,3-dione] | 10 to 100 | < 10 | 10 to 100 | < 10
16 | O=C1CCC(N2C(=O)c3ccc(NCC4CC(C(=O)N5CCC(n6cc(-c7cnc8ccccc8n7)cn6)CC5)C4)cc3C2=O)C(=O)N1 (stereo not drawn) [GS-192, 2-(2,6-Dioxopiperidin-3-yl)-5-(((3-(4-(4-(quinoxalin-2-yl)-1H-pyrazol-1-yl)piperidine-1-carbonyl)cyclobutyl)methyl)amino)isoindoline-1,3-dione] | > 1000 | 10 to 100 | 100 to 1000 | 10 to 100
17 | O=C1CCC(N2C(=O)c3ccc(NC[C@H]4C[C@@H](n5cc(-c6cnc7ccc(C8CCOCC8)cc7n6)cn5)C4)cc3C2=O)C(=O)N1 (stereo partly drawn) [GS-193, 2-(2,6-Dioxopiperidin-3-yl)-5-(((cis-3-(4-(7-(tetrahydro-2H-pyran-4-yl)quinoxalin-2-yl)-1H-pyrazol-1-yl)cyclobutyl)methyl)amino)isoindoline-1,3-dione] | 100 to 1000 | 100 to 1000 | > 1000 | 100 to 1000
18 | O=C1CCC(N2C(=O)c3ccc(NCCC45CC(C(=O)N6CCC(n7cc(-c8cnc9ccccc9n8)cn7)CC6)(C4)C5)cc3C2=O)C(=O)N1 (stereo not drawn) [GS-194, 2-(2,6-Dioxopiperidin-3-yl)-5-((2-(3-(4-(4-(quinoxalin-2-yl)-1H-pyrazol-1-yl)piperidine-1-carbonyl)bicyclo[1.1.1]pentan-1-yl)ethyl)amino)isoindoline-1,3-dione] | 100 to 1000 | < 10 | 10 to 100 | < 10
19 | O=C1CCC(N2C(=O)c3ccc(NCCC[C@H]4C[C@H](n5cc(-c6cnc7ccc(N8CCNCC8)cc7n6)cn5)C4)cc3C2=O)C(=O)N1 (stereo partly drawn) [GS-195, 2-(2,6-Dioxopiperidin-3-yl)-5-((3-(trans-3-(4-(7-(piperazin-1-yl)quinoxalin-2-yl)-1H-pyrazol-1-yl)cyclobutyl)propyl)amino)isoindoline-1,3-dione] | 100 to 1000 | < 10 | 100 to 1000 | < 10
20 | O=C1CCC(N2C(=O)c3ccc(NCCC[C@H]4C[C@H](n5cc(-c6cnc7ccc(NC8CCNCC8)cc7n6)cn5)C4)cc3C2=O)C(=O)N1 (stereo partly drawn) [GS-196, 2-(2,6-Dioxopiperidin-3-yl)-5-((3-(trans-3-(4-(7-(piperidin-4-ylamino)quinoxalin-2-yl)-1H-pyrazol-1-yl)cyclobutyl)propyl)amino)isoindoline-1,3-dione] | 10 to 100 | < 10 | 10 to 100 | < 10
21 | N#Cc1cccc2ncc(-c3cnn([C@H]4C[C@H](CCCNc5ccc6c(c5)C(=O)N(C5CCC(=O)NC5=O)C6=O)C4)c3)nc12 (stereo partly drawn) [GS-197, 3-(1-(trans-3-(3-((2-(2,6-Dioxopiperidin-3-yl)-1,3-dioxoisoindolin-5-yl)amino)propyl)cyclobutyl)-1H-pyrazol-4-yl)quinoxaline-5-carbonitrile] | 100 to 1000 | 10 to 100 | 10 to 100 | 10 to 100
